Measurements from patent US20240327415A1, “Multicomponent Complexes, Including Salts, Crystalline Forms, and Hydrates and Solvates of ENT1 Inhibitors” (iTeos Belgium SA, priority 2023, published 2024).

Experiments:
Assay type in all cases: physicochemical
[1] = pH solubility studies in buffers and biorelevant media (Example 16); conditions: for ML purity / Solub.: 24 h; for solution purity of the extracted mother liquors: after 24 hours slurrying in the media (Form 2: all samples except pH 4.5 Attempt 1); for solubility: 24 hours
Protocol: Example 16—pH Solubility Studies—(1) Crystalline Form 2 Compound 1 di(hydrogen sulfate) trihydrate, (2) Crystalline Form 3 Compound 1 di(hydrogen sulfate), and (3) Crystalline Form 4 Compound 1 mono(hydrogen sulfate): pH solubility studies were carried out on the prepared crystalline Form 2 Compound 1 di(hydrogen sulfate) trihydrate, crystalline Form 3 Compound 1 di(hydrogen sulfate) and crystalline Form 4 Compound 1 mono(hydrogen sulfate) in the following media: (1) HCl/KCl, pH 1.2; (2) Acetate, pH 4.5; (3) Phosphate, pH 6.8; (4) FaSSIF; (5) FeSSIF; and (6) FaSSGF. Slurries of the hydrogen sulfate forms were prepared in the appropriate medium and stirred at 25° C. For the experiments in the buffer media, the pH of the slurry samples was measured and adjusted as required after 1 hour and 23 hours of the slurrying. Additional solid was added where dissolution was observed post-adjustment. The pH of the samples in the biorelevant media was measured at the 23 hour timepoint. No pH adjustment was made for the biorelevant media. After a total of 24 hours of slurrying, the mother liquors were extracted via centrifugation, and the concentrations and solution purity were determined by HPLC. The residual solids were isolated and analyzed by XRPD and are shown in FIG. 77, FIG. 78, and FIG. 79. The assessment was repeated for some of the samples, where required.

[2] = seven-day solid stability studies (ambient; 40° C./75% RH; 80° C.), XRPD and HPLC; conditions: for solid form by XRPD after storage: 7 days
Protocol: In the experiment, one set of vials was exposed to ambient light, temperature and humidity conditions. Another was exposed openly to 40° C. and 75% RH conditions and a third was sealed and exposed to 80° C. conditions. After 7 days, XRPD and HPLC measurements were collected.
Example 12-Stability Studies of Amorphous Compound 1 (free base) and Crystalline Form 1 Compound 1 (free base): Seven-day stability studies were carried out comparing amorphous Compound 1 (free base) and crystalline Form 1 Compound 1 (free base) at 40° C./75% RH, under ambient conditions and at 80° C. After storage at 40° C./75% RH and 80° C., the amorphous material formed glassy solids which were pale yellow (40° C./75% RH) or orange (80° C.). It is likely that the material melted and re-solidified at 80° C. and deliquesced at 40° C./75% RH. […] (decrease in purity of ca. 11% area).
Example 15-Stabilities Studies-Crystalline Form 3 Compound 1 di(hydrogen sulfate) and Crystalline Form 4 Compound 1 mono(hydrogen sulfate): Seven-day stability studies were carried out on the prepared crystalline Form 3 Compound 1 di(hydrogen sulfate) and crystalline Form 4 Compound 1 mono(hydrogen sulfate) using the following conditions: (1) Ambient light, temperature and humidity conditions (open vial); (2) 40° C./75% RH (open vial); and (3) 80° C. (closed vial). After 7 days of storage under the specified conditions, XRPD and HPLC analyses were carried out on the residual solid materials, and the results are summarized in Table 51.
Example 18-Seven Day Stability Study on Crystalline Form 2 Compound 1 di(hydrogen sulfate) trihydrate: A 7-day stability study was conducted on crystalline Form 2 Compound 1 di(hydrogen sulfate) trihydrate using the following conditions: (1) ambient light, temperature, and humidity conditions (open vial); (2) 40° C., 75% RH (open vial); and (3) 80° C. (closed vial). After 7 days of storage under the specified, XRPD and HPLC analyses were carried out on the residual solid materials.

[3] = Variable Temperature X-Ray Powder Diffraction (VT-XRPD)
Protocol: In the examples below, VT-XRPD analysis was carried out on a Philips X'Pert Pro Multipurpose diffractometer equipped with a temperature chamber. The samples were scanned between 4 and 36° 2θ using Cu K radiation (α1 λ=1.54060 Å; α2=1.54443 Å; β=1.39225 Å; α1: α2 ratio=0.5; most, if not all, B radiation is removed from the beam using an X-ray mirror) running in Bragg-Brentano geometry (step size 0.008° 2θ) using 40 kV/40 mA generator settings. Measurements were carried out from ambient temperature to an upper limit of 250° C., with a final measurement taken after cooling.
VT-XRPD analysis was carried out on a Philips X'Pert Pro Multipurpose diffractometer equipped with a temperature chamber. The samples were scanned between 4 and 36° 2θ using Cu K radiation (α1 λ=1.54060 Å; α2=1.54443 Å; β2=1.39225 Å; α1:α2 ratio=0.5; most, if not all, β radiation is removed from the beam using an X-ray mirror) running in Bragg-Brentano geometry (step size 0.008° 2θ) using 40 kV/40 mA generator settings. Measurements were carried out from ambient temperature to an upper limit of 250° C., with a final measurement taken after cooling.

[4] = FaSSGF, 25° C., pH after 24 h 1.98
[5] = FaSSIF, 25° C., pH after 24 h 3.93
[6] = FeSSIF, 25° C., pH after 24 h 4.34
[7] = pH 1.2 (HCl/KCl), 25° C., pH after 24 h 1.57→1.33
[8] = pH 4.5 (Acetate), 25° C., pH after 24 h 4.43
[9] = pH 6.8 (Phosphate), 25° C., pH after 24 h 5.19→6.94
[10] = FaSSGF, 25° C., pH after 24 h 0.87
[11] = FaSSIF, 25° C., pH after 24 h 1.10
[12] = FeSSIF, 25° C., pH after 24 h 1.01, Cloudy
[13] = pH 1.2 (HCl/KCl), attempt 1, 25° C., pH after 24 h 1.13
[14] = pH 4.5 (Acetate), attempt 1, 25° C., pH after 24 h 4.76→4.58
[15] = pH 4.5 (Acetate), attempt 2, 25° C., pH after 24 h 4.88→4.56
[16] = pH 6.8 (Phosphate), attempt 1, 25° C., pH after 24 h 5.57→6.70
[17] = pH 6.8 (Phosphate), attempt 2, 25° C., pH after 24 h 1.57→6.71

With `COc1cc(C(=O)O[C@@H]2CCCOc3cc(cc(OC)c3OC)C(=O)NCCCN3CCCN(CC2)CC3)cc(OC)c1OC.O=S(=O)(O)O` the ML purity [1, 4] was 99.82 % area, the Solub. [1, 4] was 36.7 mg/mL and the ML purity [1, 5] was 99.86 % area. It also gave a Solub. [1, 5] of 44.9 mg/mL, an ML purity [1, 6] of 99.69 % area and a Solub. [1, 6] of 124.2 mg/mL. The “solution purity of the extracted mother liquors” value [1] was > 98 % area, the pH solubility ([1]; pH 1.2) was “pH 1.2: 134 mg/mL” and the “pH solubility: residual solid” value ([1]; pH 1.2) was “mg/mL, Form 4”. The ML purity [1, 7] was >99.99 % area, the Solub. [1, 7] was 134.1 mg/mL and the solubility ([1]; pH 1.2 and FeSSIF media, 25° C.) was > 100 mg/mL. The pH solubility ([1]; pH 4.5) was “pH 4.5: 47 mg/mL”, the “pH solubility: residual solid” value ([1]; pH 4.5) was “mg/mL, Form 4” and the ML purity [1, 8] was 99.86 % area. For the same molecule, the Solub. [1, 8] was 46.9 mg/mL, the pH solubility ([1]; pH 6.8) was “pH 6.8: 62 mg/mL” and the “pH solubility: residual solid” value ([1]; pH 6.8) was “mg/mL, Gum”. It also gave an ML purity [1, 9] of 98.30 % area, a Solub. [1, 9] of 62.0 mg/mL and a solubility ([1]; the other media assessed, 25° C.) of 30 to 80 mg/mL. For the same molecule, the “7-day Stability studies: Purity compared to input” value [2] was “Purity similar”, the “solid form by XRPD after storage” value ([2]; 40° C./75% RH) was “retained” and the “solid form by XRPD after storage” value ([2]; 80° C.) was “predominantly amorphous”. For the same molecule, the “solid form by XRPD after storage” value ([2]; ambient conditions) was “retained”, the “7-day Stability studies: solid form” value ([2]; all conditions) was “Form 4 retained” and the “7-day Stability studies: crystallinity” value ([2]; at 80° C., printed 'crystallinity significantly reduced') was “reduced at 80° C.)”. For the same molecule, the “VT-XRPD: Conv. To Form 8 at” value [3] was “at 40-70 °C”, the “VT-XRPD: Conversion to amorph. At” value [3] was “amorph. At ≥90 °C” and the “temperature above which the sample turned amorphous” value [3] was “greater than 90 °C”. For the same molecule, the “temperature range of conversion to crystalline Form 8 Compound 1 mono(hydrogen sulfate)” value [3] was 40-70 °C.
Molecule `COc1cc(C(=O)O[C@@H]2CCCOc3cc(cc(OC)c3OC)C(=O)NCCCN3CCCN(CC2)CC3)cc(OC)c1OC.O=S(=O)(O)O.O=S(=O)(O)O` [crystalline Form 3 Compound 1 di(hydrogen sulfate)] has an ML purity [1, 10] of 99.51 % area, a Solub. [1, 10] of 72.0 mg/mL and an ML purity [1, 11] of 99.76 % area. For the same molecule, the Solub. [1, 11] was 77.1 mg/mL, the ML purity [1, 12] was 99.90 % area and the Solub. [1, 12] was ≥208.3 mg/mL. The “solution purity of the extracted mother liquors” value [1] was > 95 % area, the solubility ([1]; all the media assessed, except the pH 4.5 media, 25° C.) was > 50 mg/mL and the pH solubility ([1]; pH 1.2) was “pH 1.2: 76 mg/mL”. The “pH solubility: residual solid” value ([1]; pH 1.2) was “mg/mL, Form 2”, the ML purity [1, 13] was 99.56 % area and the Solub. [1, 13] was 75.7 mg/mL. For the same molecule, the pH solubility ([1]; pH 4.5) was “pH 4.5: 54 mg/mL”, the “pH solubility: residual solid” value ([1]; pH 4.5) was “mg/mL, Form 4” and the ML purity [1, 14] was 99.59 % area. It also gave a Solub. [1, 14] of 54.2 mg/mL, an ML purity [1, 15] of 95.53 % area and a Solub. [1, 15] of 20.0 mg/mL. The solubility ([1]; pH 4.5 media, Attempt 2, 25° C.) was 20 mg/mL, the pH solubility ([1]; pH 6.8) was “pH 6.8: 150 mg/mL” and the “pH solubility: residual solid” value ([1]; pH 6.8) was “mg/mL, Gum”. The ML purity [1, 16] was 99.87 % area, the Solub. [1, 16] was 122.5 mg/mL and the ML purity [1, 17] was 99.16 % area. The Solub. [1, 17] was 152.8 mg/mL, the “7-day Stability studies: Purity compared to input” value [2] was “Purity similar” and the “solid form by XRPD after storage” value ([2]; 40° C./75% RH) was “Conversion to crystalline Form 2 Compound 1 di(hydrogen sulfate) trihydrate”. For the same molecule, the “solid form by XRPD after storage” value ([2]; 80° C.) was “mixture of crystalline Form 3 Compound 1 di(hydrogen sulfate) and crystalline Form 9 Compound 1 di(hydrogen sulfate)”, the “solid form by XRPD after storage” value ([2]; ambient conditions) was “conversion to crystalline Form 6 Compound 1 di(hydrogen sulfate)” and the “7-day Stability studies: solid form” value ([2]; at 80° C.) was “Form 9 at 80 °C”. The “7-day Stability studies: solid form” value ([2]; at ambient) was “Form 6 at ambient;”, the “VT-XRPD: Conv. To Form 9 from” value [3] was “from 50-160 °C” and the “VT-XRPD: Melt from” value [3] was “Melt from 160 °C”. The “VT-XRPD: input form retained at” value [3] was “at 25-50 °C”, the “temperature range in which the form is retained (VT-XRPD)” value [3] was 25-40 °C and the “VT-XRPD Results” value ([3]; Heating, 50° C., hold 30 min) was 3 (trace of 9).
